Measured values from patent publication US8802675B2, “Neuroprotective multifunctional compounds and pharmaceutical compositions comprising them” (priority 2009, dated 2014).

Key:
rat brain MAO-A = target: T1, rat brain MAO-A (Rattus norvegicus, UniProt P21396); experiment: biochemical; conditions: for IC50: IC50 MAO-A, rat brain homogenate in vitro, mean SEM, n=3 in triplicates
T1 construct: from tissue; host or cells: rat brain homogenate
T1 sequence (P21396 1-526): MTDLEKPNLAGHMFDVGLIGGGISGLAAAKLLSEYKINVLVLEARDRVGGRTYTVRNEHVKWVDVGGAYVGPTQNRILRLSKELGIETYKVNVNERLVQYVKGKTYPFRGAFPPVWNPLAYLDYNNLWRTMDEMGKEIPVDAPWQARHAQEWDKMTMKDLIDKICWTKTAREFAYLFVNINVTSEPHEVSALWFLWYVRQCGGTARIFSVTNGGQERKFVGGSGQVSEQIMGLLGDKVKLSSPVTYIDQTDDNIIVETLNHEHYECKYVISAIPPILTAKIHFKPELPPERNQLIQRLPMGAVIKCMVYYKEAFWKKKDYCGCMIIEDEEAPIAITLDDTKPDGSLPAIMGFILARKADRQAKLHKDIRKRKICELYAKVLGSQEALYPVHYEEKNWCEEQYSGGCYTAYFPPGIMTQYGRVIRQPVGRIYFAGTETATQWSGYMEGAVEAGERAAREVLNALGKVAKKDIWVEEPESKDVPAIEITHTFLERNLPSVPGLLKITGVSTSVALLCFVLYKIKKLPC
Procedure: (§1) Rats were decapitated and the brains were quickly taken into a pre-weighted ice-cold sucrose buffer (10 mM Tris-HCl buffer, pH 7.4, containing 0.32 M sucrose), and their weights were measured. The brains were homogenized at 0-4° C. in 0.32 M sucrose (one part tissue to 20 parts sucrose) in a Teflon glass homogenizer. The resultant homogenates were used to determine MAO activity. Protein concentration was determined with Bradford reagent at 595 nm, using bovine serum albumin as a standard.
(§2) The activity of MAO-A and MAO-B were determined by the adapted method of Tipton & Youdim (Tipton et al. 1983). Briefly, the multifunctional compound tested was added to a suitable dilution of the enzyme preparation (70 μg MAO-B and 150 μg MAO-A) in 0.05 M phosphate buffer (pH 7.4). The mixture was incubated together with 0.05 μM 1-deprenyl, a specific inhibitor of MAO-B (for determination of MAO-A activity in the presence of the test compound) or 0.05 μM clorgyline a specific inhibitor of MAO-A (for determination of MAO-B activity). […] The reaction was stopped with 2M ice-cold citric acid, and the radioactive metabolites (5-hydroxytryptaldehyde and phenylacetaldehyde) were extracted by addition of 2 ml of ethylacetate/toluene (1:1 vol/vol). The radioactivity contained in the organic phase was determined by liquid-scintillation counting in cpm units.
(§3) MAO-A and MAO-B activities were determined in rat brain homogenate in vitro following incubation with varying concentrations of the test compounds.
(§4) The results are the mean SEM, n=3 in triplicates.

rat brain MAO-B = target: T2, rat brain MAO-B (Rattus norvegicus, UniProt P19643); experiment: biochemical; conditions: for inhibition at 10 µM: read-out: percent inhibition MAO-B
T2 construct: from tissue; host or cells: rat brain homogenate
T2 sequence (P19643 1-520): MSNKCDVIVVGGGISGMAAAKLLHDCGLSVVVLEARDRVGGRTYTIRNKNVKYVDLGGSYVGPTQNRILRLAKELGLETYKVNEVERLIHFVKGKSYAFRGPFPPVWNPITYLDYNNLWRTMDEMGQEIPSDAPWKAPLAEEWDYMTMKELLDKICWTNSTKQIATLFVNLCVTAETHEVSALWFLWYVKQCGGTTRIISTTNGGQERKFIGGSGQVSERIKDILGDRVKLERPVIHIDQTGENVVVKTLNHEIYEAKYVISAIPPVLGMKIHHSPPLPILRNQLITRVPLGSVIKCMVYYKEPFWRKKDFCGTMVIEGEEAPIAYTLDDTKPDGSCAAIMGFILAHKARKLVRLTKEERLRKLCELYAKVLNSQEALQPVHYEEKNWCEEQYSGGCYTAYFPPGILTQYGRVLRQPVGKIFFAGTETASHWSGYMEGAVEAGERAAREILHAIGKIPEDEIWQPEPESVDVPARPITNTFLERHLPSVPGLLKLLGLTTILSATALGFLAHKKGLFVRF
Procedure: as §1, §2, §3, §4

[1] = target: T3, total cholinesterase (ChE) (Rattus norvegicus, UniProt P37136); experiment: Total cholinesterase inhibition in rat brain homogenates (Ellman); type: biochemical
T3 sequence (P37136 32-614): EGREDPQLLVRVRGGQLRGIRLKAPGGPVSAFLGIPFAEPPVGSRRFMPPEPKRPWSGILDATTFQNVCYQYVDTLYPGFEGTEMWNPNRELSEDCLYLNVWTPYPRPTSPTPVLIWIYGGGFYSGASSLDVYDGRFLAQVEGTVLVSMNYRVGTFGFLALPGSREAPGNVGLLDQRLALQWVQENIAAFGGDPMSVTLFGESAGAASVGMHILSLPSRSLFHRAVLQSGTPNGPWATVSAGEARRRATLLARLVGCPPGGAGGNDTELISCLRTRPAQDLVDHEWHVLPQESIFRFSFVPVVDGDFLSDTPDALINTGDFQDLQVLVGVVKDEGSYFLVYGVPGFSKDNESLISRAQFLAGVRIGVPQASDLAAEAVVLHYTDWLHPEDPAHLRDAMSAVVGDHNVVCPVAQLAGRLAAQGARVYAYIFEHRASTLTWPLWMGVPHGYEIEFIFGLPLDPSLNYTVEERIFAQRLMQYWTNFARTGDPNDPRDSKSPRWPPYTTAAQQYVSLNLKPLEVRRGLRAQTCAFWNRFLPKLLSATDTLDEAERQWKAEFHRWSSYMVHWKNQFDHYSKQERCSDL
Procedure: Cholinesterase activity was determined in rat brain homogenate following incubation with varying concentrations of the multifunctional pro-chelators of the invention (also referred to herein as “carbamates”).
Ellman's colorimetric method was adapted for determination of total cholinesterase (ChE) and butyrylcholinesterase (BuChE) activities in rat brain homogenates. Brain tissue from adult Wistar rats was homogenized at 2% w/v (or 10% w/v, for BuChE) in 0.1 M sodium phosphate buffer, pH 7.4, with added NaCl 58.5 g/l and Triton X-100 0.05% v/v. Aliquots of homogenate (20 μl) were incubated with the test compounds for designed time intervals in phosphate buffer pH 7.4, before addition of 5,5′-dithiobis(2-nitrobenzoic) acid and either 1 mM acetylthiocholine iodide or 10 mM butyrylthiocholine iodide (Sigma, St. Louis, Mo.). The reaction was run at 37° C. in a final volume of […] in 96-well microplates and was followed at 412 nm for 5 min with a plate reader. In every experiment, cholinesterase-independent (nonspecific) substrate hydrolysis was determined by including one experimental group treated with tacrine 30 μM. Appropriate tissue and reagent blanks were also included. Reaction velocities were determined in three or four replicates per condition; these were averaged and expressed as percent activity relative to control (solvent), after subtracting the rate of nonspecific hydrolysis.
The results are the mean SEM, n=3 in triplicates. ND—not determined.

[2] = tested on: ChE from rat brain homogenates; experiment: Time course of total ChE inhibition at 1 μM versus rivastigmine; type: biochemical; conditions: 1 μM, time course
Procedure: The new carbamates of the present invention are expected to act as rivastigmine and inhibit ChE activity. […] Enzyme activity was determined with Ellman's colorimetric method after addition of substrate, and the results are shown in FIGS. 8A-8B.

[3] = target: T4, rat brain cholinesterase (total ChE) (Rattus norvegicus, UniProt P37136); experiment: Kinetics of irreversible cholinesterase inhibition (Kitz-Wilson); type: biochemical
T4 construct: rows headed: Ki (dissociation constant for EI); other: rat brain total ChE; mean of 3-4 experiments; k+2 (carbamylation rate constant); other: from ki; rate of carba
T4 sequence (P37136 32-614): T3 sequence (P37136 32-614)
Procedure: To determine kinetic constants of irreversible inhibition, cholinesterase from rat brain homogenates was incubated with the multifunctional compounds of the invention for designed time intervals in phosphate buffer pH 7.4.
The residual cholinesterase activity was immediately measured with the Ellman's colorimetric method after addition of 5,5′-dithiobis(2-nitrobenzoic) acid and 1 mM acetylthiocholine iodide. The inhibition kinetics were assessed according to Kitz-Wilson equation:
[formula] wherein: E represents the enzyme; I represents the intact carbamate (inhibitor); EI is the initial reversible enzyme complex; E* is the carbamylated enzyme; Ki represents the dissociation constant for EI; k+2 is the carbamylation rate constant and k+3 is the decarbamylation rate constant; kapp is the pseudo-first-order inhibition rate constant; ki, the second-order rate inhibition constant, is approximated by k+2/Ki. Under experimental condition [I]>>[E0].
According to equation (2), the logarithm of the ratio of the residual cholinesterase activity (E) and the initial cholinesterase activity (E0) is plotted against the time of incubation. The slopes of the lines representing kapp were determined by linear regression.
The slopes of the lines represent the pseudo-first-order inhibition rate constant (kapp) determined from linear regression analysis. […] The carbamylation rate constant (k+2) was obtained from the y-intercept, and the dissociation constant ([…] was obtained from the slope of the line multiplied by k+2 as described in Materials and Methods.
From these lines, the values of kapp were calculated based on Equation (2) of the Kitz-Wilson equations (see Material and Methods). […] The carbamylation rate constant k+2 is a measure of inactivation of ChE.

[4] = Metal chelation assay (UV-vis spectra of metal complexes); type: physicochemical; conditions: ZnCl2, CuSO4, FeCl3 and FeSO4; 5% NH4Ac, pH=7
Excerpt: Metal chelation, particularly iron chelation, is an important precondition for the antioxidative-function of the multi-functional compounds of the invention, because it is the excessive iron stores and iron-mediated generation of free radicals in the brain that are thought to be associated with neurodegenerative diseases. The novel strategy, according to the present invention, for the treatment of neurodegenerative diseases such as Alzheimer's disease is the design of pro-chelators that inhibit AChE with a concomitant release of the active chelators. This novel strategy has advantages over the current chelator strategy since it is capable not only of minimizing the potential toxicity associated with strong chelators such as the 8-hydroxyquinoline derivatives disclosed in WO 2004/041151, which might interfere with healthy metal metabolism in the brain, but it also offers multiple activities against AChE, Aβ aggregation, oxidative stress, and metal (Fe, Cu, Zn) dyshomeostasis in the brain. Therefore, a metal chelation assay was used to confirm that the new multifunctional pro-chelators that comprise an N,N-dialkylcarbamoyl moiety [N(RR′)CO—] linked to the oxygen at position 8 of quinoline would have little to no affinity for metal ions in their pro-drug form. When these pro-chelators bind to cholinesterase or AChE in the brain, the N,N-dialkylcarbamoyl moiety is dissociated, thus unmasking a free hydroxyl group at said position 8 of quinoline, turning the pro-chelators into active chelators, which passivate excess cerebral metal ions and protect neuronal cells against reactive oxygen species (ROS).
A spectrophotometric method was used for measurement of metal complexes of the multifunctional pro-chelators of the invention with metal ions selected from Zn^2+, Cu^2+, Fe^3+ and Fe^2+, and compared to the respective metal complexes of some known iron chelators disclosed in WO 2004/041151.
Thus, the metal chelating function of compound 13 and compound 23 as compared to M30 and HLA20, respectively, was measured by dissolving 0.1 mM or 0.2 mM of the test compounds in 5% NH4Ac, pH=7, in the presence and absence of 0.1 mM or 0.2 mM of the metal salts […], CuSO4, FeCl3 and FeSO4, and measuring the UV-vis spectra (Hewlett-Packard 8450A diode array spectrophotometer) of the various metal complexes formed. The results for M30 and compound 13 are shown in FIGS. 1A and 1B, respectively.

[5] = tested on: human SH-SY5Y neuroblastoma cells; experiment: MTT cell viability assay in SH-SY5Y cells; type: cell-based; conditions: MTT after 48 h incubation
Procedure: Cell culture. Human neuroblastoma SH-SY5Y cells were obtained from American Type Culture Collection (Rockville, Md., USA). Cells were routinely cultured in MEM-Eagle/F-12(HAM) (1:1), containing 10% FCS and a mixture of 2% sodium bicarbonate, 1% penicillin/streptomycin/nystatin and 1% sodium pyruvate. Cell cultures were incubated at 37° C. in a humid 5% CO2-95% air environment.
Twenty-four hours after attachment of the SH-SY5Y cells, the medium was replaced with DMEM containing 0.1% BSA. The test compounds were added to the cells after 1 h of incubation. After 24 h incubation, the cells were subjected to MTT test as previously described (Gassen et al., 1998). The absorption was determined in a Perkin-Elmer Dual Wavelength Eliza-Reader at λ=570/650 nm after automatic subtraction of background readings. The results are expressed as percentage of the untreated control.
The effect of the iron chelators M30 and HLA20 versus that of the pro-chelators 13 and 23, on viability of human SH-SY5Y cells was tested. Human SH-SY5Y neuroblastoma cells were plated in 100-mm culture dishes and cultured in DMEM (4,500 mg/l glucose), containing 10% FCS (fetal calf serum, Bet Haemek, Israel), and 1% of a mixture of penicillin/streptomycin/nystatin. When cells reached the required confluence, they were detached and re-cultured in microtiter plates (96 wells) pre-coated with collagen ([…]), in DMEM with 10% of fetal calf serum (0.5×10^4 cells/well). Cell viability was tested by the 3-(4,5-dimethylthiazol-2-yl)-2,5-diphenyltetrazolium (MTT) assays after 48 h incubation.

SMILES	IC50 (rat brain MAO-A)	inhibition at 10 µM (rat brain MAO-B)	IC50 ([1]; rat brain homogenates, mean SEM, n=3 in triplicates)	ChE inhibition compared with rivastigmine and other carbamates [2]	inhibition at 50 µM ([1]; read-out: percent inhibition Total ChE)	potency in inhibiting ChE relative to rivastigmine ([3]; from ki)	kinact/KI ([3]; pH 7.4, read-out: ki (second-order rate inhibition constant, approximated by k+2/Ki))	binding of metal ions (shift of absorbance peak) [4]	cell viability ([5]; 10 μM)	cell viability ([5]; 25 μM)	cell viability ([5]; 50 μM)	inhibitory effect on MAO-A (rat brain MAO-A; rat brain homogenate)	inhibitory effect on MAO-B (rat brain MAO-B; rat brain homogenate)
C#CCN(C)Cc1ccc(OC(=O)N(C)C)c2ncccc12 [Compound 2, 5-((methyl(propargyl)amino)methyl)quinolin-8-yl dimethylcarbamate]	< 100 nM	67%	520 nM	more potent than	–	–	–	–	–	–	–	–	–
C#CCN(C)Cc1ccc(OC(=O)NCCCCCC)c2ncccc12 [Compound 4, 5-((methyl(propargyl)amino)methyl)quinolin-8-yl hexylcarbamate]	< 100 nM	25%	–	–	43%	half potent	39 M⁻¹ s⁻¹	–	–	–	–	–	–
C#CCN1CCN(Cc2ccc(O)c3ncccc23)CC1 [HLA20, reference compound]	–	–	–	–	–	–	–	binds the respective metal ions	≤ 75%	≤ 75%	almost all the cells died	minor to none inhibitory effects	minor to none inhibitory effects
